Several values for one entry are separate records, joined by “and”; a condition that tells them apart may be missing. Equal values may be shown once.
Test system: PPAR signaling pathway genes, maternal liver
Test: Maternal liver (GD18) PPAR gene array, fold induction versus control; oral dosing GD14-18; rows per gene in dose order 1, 3, 10, 30, 62.5, 125, 250, 500 mg/kg/d
Type: in vivo, Sprague-Dawley rats
Experimental: A total of three blocks of 15 dams per block were dosed once daily from GD14–18 with either water vehicle (control) or HFPO-DA to evaluate fetal and maternal effects (Figure 1A). The first block of dams was dosed with control, 62.5, 125, 250, or 500mg/kg HFPO-DA ( n=3 dams for each). The second and third blocks of dams were dosed with control, 1, 3, 10, or 30mg/kg HFPO-DA ( n=3 per dose per block). Total sample sizes were n=9 for control, n=6 for 1, 3, 10, 30mg/kg , and n=3 for 62.5, 125, 250, and 500mg/kg HFPO-DA. In the first two blocks, spanning the entire dose range, we evaluated fetal testis testosterone production, fetal testis gene expression, fetal and maternal liver gene expression, fetal body weight, and maternal serum thyroid hormone and lipid concentrations. In the third block, encompassing the lower dose range utilized here, we collected fetal plasma for measuring HFPO-DA concentrations. Across all three blocks we evaluated maternal weight gain during dosing, reproductive output (number of fetuses and resorptions), maternal serum HFPO-DA concentration, and maternal liver weight at necropsy.
For the first two blocks, spanning the full dose range, late gestation (GD18) dams were euthanized by decapitation at ∼2h after the final oral dose [ ∼0830–1000 hours Eastern Standard Time (EST)]. Trunk blood was collected and serum isolated via centrifugation ( 10,000×g for 15 min at 4°C) in vacutainer tubes, transferred to 1.5-mL microcentrifuge tubes and stored at −80°C . Dam liver weight was recorded and a sample of liver tissue was collected into a polypropylene microcentrifuge tube containing 500μL TRIzol Reagent (Invitrogen) on ice. Fetuses were removed and two randomly selected fetuses per litter were weighed. Fetal testes were collected from all male pups with a single testis from the first three males used for determination of ex vivo testosterone production and the remaining testes were homogenized and preserved in TRIzol Reagent for gene expression analysis. The liver was collected from a single, randomly selected fetus per dam/litter for gene expression analysis and transferred to a polypropylene microcentrifuge tube containing 500μL TRIzol Reagent (Invitrogen) on ice. Both dam and fetal liver samples were individually homogenized using a Bullet Blender (Next Advance) with 1-mm zirconium oxide beads, transferred to clean tubes, and stored at −80°C prior to RNA extraction (see below). Ex vivo fetal testis testosterone production was measured as previously reported ([Wilson et al. 2004b]) except the radioimmunoassay (RIA) utilized here was supplied by ALPCO (Catalog No. 72-TESTO-CT2, ALPCO). Briefly, one testis was isolated from each of three separate male fetuses in each litter and incubated in a humidified atmosphere at 37°C for 3 h in 500μL of M-199 media (phenol red–free; Hazelton Biologics, Inc.) supplemented with 10% dextran-coated charcoal-stripped fetal bovine serum (Hyclone Laboratories) in 24-well plates under gentle agitation. After incubation, media were removed and stored in siliconized microcentrifuge tubes at −80°C until RIA analyses, which were performed according to manufacturer specifications.
Gene expression in fetal testes and fetal/maternal livers was assessed using reverse transcriptase real-time PCR of cDNA synthesized from RNA extracted from sample homogenates. RNA extraction was conducted according to TRIzol Reagent manufacturer specifications using chloroform and isopropanol. Following extraction, RNA was purified using the RNeasy Mini Kit (Catalog No. 74104; Qiagen). RNA concentration and purity (260:280 ratio ≥1.8 ) were determined with a NanoDrop 2000 spectrophotometer (Thermo Scientific). For the fetal testes, a 96-well gene array plate was previously custom designed to contain 89 target genes and 3 housekeeping genes, an intra-assay control, a genomic DNA control, a reverse transcriptase control, and a positive PCR control [see Table S1; SABioscience; ([Hannas et al. 2012])]. […]

SMILES: O=C(O)C(F)(OC(F)(F)C(F)(F)C(F)(F)F)C(F)(F)F (centres unmarked) [HFPO-DA, Hexafluoropropylene oxide dimer acid]
- Acox3 (dose order): 1.3 fold and 0.9 fold and 1.2 fold and 1.1 fold and 1.0 fold
- Acsl1 (dose order): 1.3 fold and 1.5 fold and 1.1 fold and 1.7 fold and 1.6 fold and 1.8 fold
- Acsl4 (dose order): 1.0 fold and 0.7 fold and 0.9 fold and 1.3 fold and 1.2 fold
- Angptl4 (dose order): 2.3 fold and 3.4 fold and 2.1 fold and 3.6 fold and 3.0 fold and 2.9 fold and 2.5 fold
- Apoa1 (dose order): 0.9 fold and 1.0 fold and 0.7 fold
- Apoe (dose order): 1.2 fold and 0.8 fold and 0.9 fold and 0.7 fold
- Cd36 (dose order): 0.8 fold and 1.2 fold and 0.9 fold and 1.0 fold and 1.1 fold
- Clu (dose order): 1.1 fold and 1.4 fold and 0.8 fold and 1.3 fold and 1.2 fold and 1.5 fold and 1.6 fold
- Creb1 (dose order): 1.1 fold and 0.9 fold and 1.0 fold and 0.8 fold
- Crebbp (dose order): 1.3 fold and 0.9 fold and 1.0 fold
- Dgat1 (dose order): 1.1 fold and 1.3 fold and 1.2 fold and 1.5 fold and 1.6 fold and 1.8 fold and 1.9 fold
- Ep300 (dose order): 1.3 fold and 1.4 fold and 0.8 fold and 1.1 fold and 1.0 fold
- Etfdh (dose order): 1.2 fold and 1.6 fold and 1.4 fold and 1.5 fold
- Fabp5 (dose order): 1.0 fold and 1.3 fold and 1.2 fold and 0.8 fold
- Fabp7 (dose order): 2.0 fold and 1.1 fold and 1.9 fold and 1.8 fold and 1.3 fold and 1.7 fold
- Gk (dose order): 1.2 fold and 1.1 fold and 1.3 fold and 1.4 fold and 0.8 fold
- Hif1a (dose order): 1.2 fold and 1.0 fold and 1.1 fold and 1.3 fold
- Hspd1 (dose order): 1.1 fold and 1.2 fold and 1.3 fold and 1.9 fold and 1.8 fold and 2.2 fold and 2.1 fold
- Ilk (dose order): 1.2 fold and 0.9 fold and 1.1 fold and 1.0 fold
- Klf10 (dose order): 1.8 fold and 2.0 fold and 1.5 fold and 2.5 fold and 2.3 fold and 2.4 fold
- Lpin1 (dose order): 1.2 fold and 1.4 fold and 0.8 fold and 1.1 fold and 1.0 fold and 0.9 fold
- Med1 (dose order): 1.2 fold and 1.3 fold and 0.7 fold and 1.0 fold and 0.8 fold and 0.9 fold and 1.1 fold
- Ncoa3 (dose order): 1.4 fold and 0.8 fold and 1.0 fold and 0.9 fold
- Ncoa6 (dose order): 1.4 fold and 1.2 fold and 1.1 fold and 0.7 fold and 0.8 fold and 0.9 fold
- Nr1h3 (dose order): 1.1 fold and 1.5 fold and 0.8 fold and 1.6 fold and 1.3 fold
- Pdpk1 (dose order): 0.9 fold and 1.0 fold and 0.8 fold and 1.1 fold
- Pltp (dose order): 1.2 fold and 0.7 fold and 0.9 fold and 1.4 fold and 1.1 fold and 1.0 fold
- Ppara (dose order): 0.8 fold and 0.7 fold and 0.6 fold and 1.0 fold and 0.9 fold and 1.1 fold
- Ppargc1b (dose order): 1.1 fold and 1.3 fold and 0.9 fold and 0.8 fold and 0.7 fold
- Pprc1 (dose order): 1.2 fold and 1.0 fold and 1.4 fold and 1.5 fold
- Pten (dose order): 0.8 fold and 1.1 fold and 0.9 fold and 1.0 fold
- Pyy (dose order): 1.6 fold and 1.3 fold and 1.1 fold and 1.2 fold and 2.0 fold and 2.1 fold and 1.8 fold
- Rxra (dose order): 1.2 fold and 1.4 fold and 0.7 fold and 1.0 fold and 1.1 fold
- Rxrb (dose order): 1.5 fold and 1.4 fold and 0.9 fold and 1.1 fold and 0.8 fold and 1.0 fold
- Rxrg (dose order): 1.5 fold and 1.6 fold and 1.1 fold and 1.7 fold and 1.3 fold
- Sirt1 (dose order): 1.0 fold and 1.1 fold and 0.8 fold and 0.9 fold
- Slc27a1 (dose order): 1.5 fold and 1.6 fold and 0.9 fold and 1.4 fold and 1.1 fold and 1.0 fold and 1.3 fold
- Slc27a2 (dose order): 1.3 fold and 1.8 fold and 2.1 fold and 2.2 fold and 2.3 fold
- Slc27a4 (dose order): 1.3 fold and 1.5 fold and 0.8 fold and 1.0 fold and 1.1 fold and 0.9 fold
- Tgs1 (dose order): 0.8 fold and 0.9 fold and 0.7 fold and 1.1 fold
- number of up-regulated genes shared by maternal and fetal livers (rat, in vivo): 16 genes

— paper PMC6768323, “Adverse Maternal, Fetal, and Postnatal Effects of Hexafluoropropylene Oxide Dimer Acid (GenX) from Oral Gestational Exposure in Sprague-Dawley Rats” (Environmental Health Perspectives, 2019)
